Legend:
[1] = test system: phospho-c-jun; assay: Immunohistochemistry of phospho-c-jun in mSC of CMT1A rats; format: in vivo, rat; conditions: compared to vehicle
Procedure: The dissected nerve was washed in L15 medium, fixed in Zamboni's fixative (Stefanini et al., 1967^4) for 10 min at room temperature, washed in PBS, and incubated in successive glycerol baths (15, 45, 60, 66% in PBS) for 18 to 24 h each before freezing at −20° C. The nerves were cut in small pieces in 66% glycerol and the perineurium sheet removed. Small bundles of fibers were teased in double-distilled water on Superfrost slides, dried overnight at room temperature, and the slides stored at −20° C. For immunostaining, the teased fibers were incubated for 1 h at room temperature in blocking solution (10% goat serum, 0.2% TritonX100, and 0.01% sodium azide in PBS). […]
While demyelinating diabetes peripheral neuropathy is a commonly acquired disease, demyelination is also the characteristic feature of a large number of inherited diseases called Charcot-Marie-Tooth diseases (CMT). […] Twelve weeks old CMT1A rats were daily treated with TRO19622 for 15 or 30 days and one day or two months after treatment, we analyzed MAPK demyelination pathways by western blot. […] Then we analyzed phospho-c-jun activation in mSC using immunohistochemistry. […] Next, we measured Schwann cell demyelination and g-ratio by toluidine blue staining on semi-thin sciatic nerve sections and on thin sections using electron microscopy.

[2] = test system: phospho-c-jun; assay: Immunohistochemistry of nuclear phospho-c-jun in mSC after nerve crush or MJ; format: in vivo, mouse; conditions: immunohistochemistry; TRO19622 30 minutes prior crush
Procedure: The dissected nerve was washed in L15 medium, fixed in Zamboni's fixative (Stefanini et al., 1967^4) for 10 min at room temperature, washed in PBS, and incubated in successive glycerol baths (15, 45, 60, 66% in PBS) for 18 to 24 h each before freezing at −20° C. The nerves were cut in small pieces in 66% glycerol and the perineurium sheet removed. Small bundles of fibers were teased in double-distilled water on Superfrost slides, dried overnight at room temperature, and the slides stored at −20° C. For immunostaining, the teased fibers were incubated for 1 h at room temperature in blocking solution (10% goat serum, 0.2% TritonX100, and 0.01% sodium azide in PBS). Then, the samples were then incubated with anti-ECCD2 primary mouse antibody (1/100, BD biosciences, Ref. 610181), anti-phosphoS63-c-jun primary mouse antibody (1/200, BD Biosciences, Ref. 558036), anti-c-jun primary mouse antibody (1/200, BD Biosciences, Ref. 610326), anti-VDAC primary rabbit antibody (1/100, Cell Signaling, Ref. 4866) or/and MitoTracker Red (1/1000, Molecular Probes, Ref. M7515) in blocking solution overnight at 4° C. The next day, the samples were washed in PBS and incubated for 1 h at room temperature with secondary donkey antibodies coupled to Alexa488, Alexa 594 or Alexa647 (1/1600, Molecular probes) and TO-PRO-3 iodide (50 μM, Invitroge, Ref. T3605). Finally the samples were washed in PBS and mounted in Immu-mount (Thermo Scientific). Images were acquired at room temperature using a 20× or 40× objective, a Zeiss confocal microscope LSM710, and its associated software.
(§1) TRO19622 drug (Tocris bioscience, Ref. 2906) was diluted in ethanol to 20 mM and then, the solution was diluted in sterile PBS to 20 μM. TRO19622 treatments were realized by 3 mg/kg intraperitoneal (IP) injections of 20 mM solution or by intra sciatic nerve injections of 2 μl of drug solution 2 μM using a Hamilton syringe or a glass needle in sterile conditions 30 minutes before multiphoton image acquisitions or immunohistochemistry and demyelination studies respectively. Methyl jasmonate drug (Sigma-Aldrich, Ref. 392707) was diluted in 1 ml of sterile PBS to 1M or 3M. Methyl jasmonate treatments were realized by intra sciatic nerve injections of 1 μl of drug solution using a glass needle and micromanipulator in sterile conditions following the same virus injections procedure (see in vivo virus injection in the sciatic nerve method) two hours before multiphoton image acquisition. […] All drug concentrations were previously evaluated by Bordet et al, 2007^5; Goldin et al, 2008^6; Sharov et al, 2007^7.
To go further we also selectively silenced VDAC1 in mSC and measured the expression level of nuclear phospho-c-jun by immunohistochemistry after nerve crush. […]

[3] = test system: myelinating Schwann cells; assay: mSC demyelination morphology (confocal microscopy) four days after nerve crush; format: in vivo, mouse; conditions: intraperitoneal or intranerve injections before and daily after nerve injury
Procedure: Mice were anesthetized with isoflurane inhalation and placed under a Stemi2000 microscope (Zeiss). Incision area was shaved and cleaned using betadine solution. After incision, the gluteus superficialis and biceps femoris muscles were separated to reveal the cavity traversed by the sciatic nerve. The nerve was lift out using spatula and a thin glass needle filled with viral solution (8 μl) was introduced into the nerve with a micromanipulator. This solution was injected over 30 min with short pressure pulses using a Picospritzer III (Parker Hannifin) coupled to a pulse generator. After injection, the nerve was replaced into the cavity, the muscles were readjusted, and the wound was closed using clips (for further details see Gonzalez et al., 2014^3).
as §1
Finally we also investigated the demyelination using typical defects induced in the cellular morphology of mSC. Nerves expressing control or VDAC1 shRNAs were crushed to induce demyelination and four days later, when demyelination is maximal, we analyzed the morphology of VDAC1-silenced mSC using confocal microscopy as described previously^19. mSC display long homogenous noodle-like morphology with a regular diameter but during demyelination, they acquire a heterogeneous morphology often alterning large structures (myelin ovoids) with thin processes and their extremities split in fine extensions.

[4] = test system: diabetic (db/db) mice; assay: Electrophysiology (CMAP, NCV) in diabetic mice; format: in vivo, mouse; conditions: after 30 days of treatment
Procedure: (§2) Standard electroneurography was performed before, during and after TRO 19622 drug treatment on CMT1A rats and diabetic mice that were anesthetized with 3% isoflurane. A pair of steel needle electrodes (AD Instruments, MLA1302, Oxford, UK) was placed subcutaneously along the nerve at sciatic notch (proximal stimulation). A second pair of electrodes was placed along the tibial nerve above the ankle (distal stimulation). Supramaximal square wave pulses lasting 10 ms and 1 mA for mice and 3.6 mA for rats were delivered using a PowerLab 26T (AD Instruments, Oxford, UK). Compound muscle action potential (CMAP) was recorded from the intrinsic foot muscles using steel electrodes. Both amplitudes and latencies of CMAP were determined. The distance between the two sites of stimulation was measured alongside the skin surface with fully extended legs, and nerve conduction velocities (NCVs) were calculated automatically from sciatic nerve latency measurements (for further details Fledrich et al., 2014^10).
As previously reported^37, 38, we observed a reduction of the nerve conduction velocity in db/db diabetic mice with no change in the amplitude of the compound of action potentials (CMAP).

[5] = test system: CMT1A rats; assay: Electrophysiology (CMAP, NCV) in CMT1A rats; format: in vivo, rat; conditions: CMT1A rats treated daily for one month
Procedure: as §2

CC(C)CCC[C@@H](C)[C@H]1CC[C@H]2[C@@H]3CCC4=C/C(=N\O)CC[C@]4(C)[C@H]3CC[C@]12C [TRO19622, (NZ)—N-[(8S,9S,10R,13R,14S,17R)-10,13-dimethyl-17-[(2R)-6-methylheptan-2-yl]-1,2,6,7,8,9,11,12,14,15,16,17-dodecahydrocyclopenta[a]phenanthren-3-ylidene]hydroxylamine]
phospho-c-jun amount in the mSC nucleus [1]: strongly reduced
nuclear phospho-c-jun in mSC after nerve crush [2]: strongly reduced
number of demyelinating cells after nerve injury [3]: strongly reduced
CMAP amplitude [4]: without change
nerve conduction velocity [4]: significantly increased to reach control mice velocity
CMAP amplitude [5]: significant increase
nerve conduction velocity [5]: significant increase
nerve conduction velocity ([5]; listed as TRO16922): largely improved

From US12053480B2, “Methods and pharmaceutical compositions for treating peripheral demyelinating diseases” (INSERM (INSTITUT NATIONAL DE LA SANTE ET DE LA RECHERCHE …, priority 2015, dated 2024)
